Experimental data taken from US11376232B2, “Vidofludimus for use in the treatment or prevention of viral diseases” (Immunic AG, priority 2020, dated 2022).
Values joined by “and” are separate entries in the source; they are usually repeats but may differ in a detail not shown here. Identical values can stand only once. Counter-ions that a name gives are not always drawn. Like-named read-outs stand apart in the source and are kept apart here.

What was measured:
[1] = in vivo; cited from earlier work
SARS-CoV-2 [2] = format: cell-based
mDHODH = mDHODH (Mus musculus, UniProt O35435); assay: mDHODH inhibition, in vitro protein; format: biochemical
mDHODH, sequence (O35435 whole entry): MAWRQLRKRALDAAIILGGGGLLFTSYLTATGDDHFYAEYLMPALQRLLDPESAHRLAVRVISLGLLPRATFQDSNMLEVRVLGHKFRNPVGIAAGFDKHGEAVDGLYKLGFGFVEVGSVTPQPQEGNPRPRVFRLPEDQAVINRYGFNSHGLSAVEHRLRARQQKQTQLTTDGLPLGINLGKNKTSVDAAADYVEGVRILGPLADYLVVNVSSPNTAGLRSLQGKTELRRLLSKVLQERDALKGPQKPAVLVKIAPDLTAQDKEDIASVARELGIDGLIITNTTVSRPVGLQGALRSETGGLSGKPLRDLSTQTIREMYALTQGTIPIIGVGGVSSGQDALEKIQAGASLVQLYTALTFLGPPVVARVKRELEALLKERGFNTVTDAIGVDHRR

SARS-CoV-2 [3] = assay: SARS-CoV-2 CPE inhibition (neutral red) in Vero 76 cells; format: cell-based; conditions: Severe acute respiratory syndrome coronavirus 2, Vero 76, 120 h, read-out: EC50: 50% effective antiviral concentration
[4] = Cytotoxicity in uninfected Vero 76 cells (neutral red); format: cell-based; conditions: African green monkey, Vero 76, day 5, neutral red, read-out: CC50: 50% cytotoxic concentration of compound without virus added
SARS-CoV-2 USA_WA1/2020 = assay: microbe, parasite or virus in culture; format: cell-based; conditions: Severe acute respiratory syndrome coronavirus 2, Vero 76
SARS-CoV-2 MUC-IMB-1 [5] = assay: microbe, parasite or virus in culture; format: cell-based; conditions: Severe acute respiratory syndrome coronavirus 2, Vero 76
SARS-CoV-2 MUC-IMB-1 [6] = assay: microbe, parasite or virus in culture; format: cell-based; conditions: Severe acute respiratory syndrome coronavirus 2, Vero
SARS-CoV-2 MUC-IMB-1 [7] = assay: microbe, parasite or virus in culture; format: cell-based; conditions: Severe acute respiratory syndrome coronavirus 2, Caco-2
SARS-CoV-2 [8] = format: cell-based; conditions: CaCo-2 supernatants on Vero E6 monolayers, treatment setting
[9] = system: hyperactivated immune cells; assay: T-cell mediated cytokine production of hyperactivated immune cells; format: cell-based
[10] = Clinical tolerability of repeated daily dosing; format: in vivo, human; conditions: clinical trials
[11] = system: SARS-CoV-2 infection (COVID-19)
[12] = human, in vivo
[13] = system: HIV-191US005 (CCR5-tropic, Subtype B); conditions: cited from earlier work
[14] = system: HCV sub genomic replicon of genotype 1b; conditions: cited from earlier work
Lassa fever Arena virus = conditions: Plaque reduction, virus protein expression; A549 and Vero models; cited from earlier work
in vitro [15] = conditions: African green monkey
in vitro [16] = conditions: African green monkey; remark: listed apart in the source
in vitro [17] = conditions: human
[18] = Cytotoxicity on fibroblasts
[19] = Cytotoxicity on HepG2 cells; conditions: human
[20] = Cytotoxicity in Vero 76 cells (Table 4); conditions: African green monkey
Vero 76 = assay: Cytotoxicity in Vero 76 cells (Table 4); conditions: Vero 76, 3 days post infection
[21] = system: SARS-CoV-2 infection (COVID-19); assay: Phase 2 placebo-controlled trial in hospitalized patients with moderate COVID-19; conditions: human, in vivo
Human T-cells = assay: Proliferation assay of human T-cells (PHA-stimulated PBMCs, BrdU); format: cell-based; conditions: T-cell, PHA 20 μg/ml, 48 hours, BrdU ELISA
Procedure: Human peripheral blood mononuclear cells (PBMCs) were obtained from healthy volunteers and transferred to RPMI1640 cell culture medium containing 10% dialyzed fetal calf serum. 80.000 cells per well were pipetted into a 96-well plate and phytohemagglutinin (PHA) was added in phosphate buffered saline to a final concentration of 20 μg/ml to stimulate T-cell proliferation. Vidofludimus was added in dimethyl sulfoxide (DMSO, final concentration: 0.1 vol %) to final concentrations ranging from 20 nM to 50 μM. After incubation for 48 hours, cell proliferation was quantified using the “cell proliferation ELISA BrdU” (Roche) according to the manufacturer's instructions. Half maximal inhibition (IC50) was calculated using a 4-parameter sigmoidal curve fit.

EGFR = EGFR (Homo sapiens, UniProt P00533); assay: Off-target activity on EGFR; conditions: in contrast to leflunomide and teriflunomide
EGFR, sequence (P00533 25-1210, species assumed): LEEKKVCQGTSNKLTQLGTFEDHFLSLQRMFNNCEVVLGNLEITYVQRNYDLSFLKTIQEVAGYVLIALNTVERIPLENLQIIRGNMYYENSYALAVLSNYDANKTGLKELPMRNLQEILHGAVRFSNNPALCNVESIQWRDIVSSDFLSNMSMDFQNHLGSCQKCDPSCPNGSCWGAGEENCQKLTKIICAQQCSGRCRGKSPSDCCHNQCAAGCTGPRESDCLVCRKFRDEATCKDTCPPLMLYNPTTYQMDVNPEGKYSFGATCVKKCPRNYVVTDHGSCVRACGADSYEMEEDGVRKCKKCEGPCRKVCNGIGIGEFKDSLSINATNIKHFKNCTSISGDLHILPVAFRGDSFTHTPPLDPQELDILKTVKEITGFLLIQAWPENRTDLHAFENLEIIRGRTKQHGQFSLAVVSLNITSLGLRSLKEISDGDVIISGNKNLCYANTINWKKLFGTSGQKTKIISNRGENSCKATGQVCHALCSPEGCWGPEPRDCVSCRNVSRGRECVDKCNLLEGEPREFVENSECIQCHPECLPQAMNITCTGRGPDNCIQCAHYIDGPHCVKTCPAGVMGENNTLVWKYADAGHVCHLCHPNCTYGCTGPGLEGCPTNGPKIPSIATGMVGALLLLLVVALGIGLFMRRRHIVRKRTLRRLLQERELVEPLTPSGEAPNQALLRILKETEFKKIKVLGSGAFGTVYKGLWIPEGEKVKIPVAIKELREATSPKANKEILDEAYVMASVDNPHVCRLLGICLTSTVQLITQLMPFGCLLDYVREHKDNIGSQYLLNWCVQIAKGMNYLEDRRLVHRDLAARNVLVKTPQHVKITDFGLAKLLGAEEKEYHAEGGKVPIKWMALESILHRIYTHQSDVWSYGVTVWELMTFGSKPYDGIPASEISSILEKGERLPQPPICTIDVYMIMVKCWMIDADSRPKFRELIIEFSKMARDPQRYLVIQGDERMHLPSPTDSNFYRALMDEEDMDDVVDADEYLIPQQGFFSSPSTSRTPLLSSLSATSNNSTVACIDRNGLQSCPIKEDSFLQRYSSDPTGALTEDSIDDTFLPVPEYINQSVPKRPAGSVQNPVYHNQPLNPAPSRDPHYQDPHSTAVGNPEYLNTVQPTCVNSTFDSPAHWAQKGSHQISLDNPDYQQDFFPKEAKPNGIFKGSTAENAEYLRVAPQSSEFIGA

Auroroa-A kinases = biological target: T1, Auroroa-A kinases (Homo sapiens, UniProt O14965); assay: Off-target activity on Aurora-A kinase; conditions: in contrast to leflunomide and teriflunomide
T1 sequence (O14965 1-403): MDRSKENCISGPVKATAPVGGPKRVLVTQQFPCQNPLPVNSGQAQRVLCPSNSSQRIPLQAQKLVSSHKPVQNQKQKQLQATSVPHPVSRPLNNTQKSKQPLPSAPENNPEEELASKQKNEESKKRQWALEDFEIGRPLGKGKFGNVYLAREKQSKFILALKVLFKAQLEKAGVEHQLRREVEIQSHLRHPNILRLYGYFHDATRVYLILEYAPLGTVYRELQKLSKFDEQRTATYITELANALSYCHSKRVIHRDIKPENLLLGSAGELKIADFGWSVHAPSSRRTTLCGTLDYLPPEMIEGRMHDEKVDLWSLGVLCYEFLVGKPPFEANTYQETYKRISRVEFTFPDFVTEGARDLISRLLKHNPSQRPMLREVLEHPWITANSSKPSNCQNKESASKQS

bone marrow = assay: Animal studies, effects on bone marrow; format: in vivo; conditions: animals treated with large doses
[22] = human, in vivo; remark: listed apart in the source

Cc1oncc1C(=O)Nc1ccc(C(F)(F)F)cc1 [leflunomide]
blood plasma half-life [1]: 384 to 456 h
dosing time to achieve therapeutic trough levels [1]: up to 2 months

CCC(CC)COC(=O)[C@H](C)N[P@](=O)(OC[C@H]1O[C@@](C#N)(c2ccc3c(N)ncnn23)[C@H](O)[C@@H]1O)Oc1ccccc1 [Remdesivir, remdesivir, reference compound]
Virus titer (SARS-CoV-2 [2]; remdesivir 1 μM alone): 5.0 CCID50/ml
Virus titer (SARS-CoV-2 [2]; remdesivir 5 μM alone): 1.7 CCID50/ml
Virus titer (SARS-CoV-2 [2]; remdesivir 10 μM alone): <0.67 CCID50/ml

COc1cccc(-c2ccc(NC(=O)C3=C(C(=O)O)CCC3)c(F)c2)c1 [IMU-838, 1-cyclopentene-1-carboxylic acid, 2-(((3-fluoro-3′-methoxy(1,1′-biphenyl)-4-yl)amino)carbonyl)-, calcium salt (2:1)]
IC50 (mDHODH): 10 µM
EC50 (SARS-CoV-2 [3]): 6.1 µM
CC50 at 5 days [4]: 7.9 µM
EC90 (SARS-CoV-2 USA_WA1/2020): 6.2 ± 1.9 µM
EC50 (SARS-CoV-2 MUC-IMB-1 [5]): 10 µM
EC50 (SARS-CoV-2 MUC-IMB-1 [6]): 6.8 µM
EC50 (SARS-CoV-2 MUC-IMB-1 [7]): 7.5 to 15 µM
EC90 (SARS-CoV-2 MUC-IMB-1 [7]): 15 to 30 µM
reduction of viral plaques (SARS-CoV-2 [8]): 58 fold
Virus titer (SARS-CoV-2 [2]; IMU-838 1 μM alone): 5.7 CCID50/ml
Virus titer (SARS-CoV-2 [2]; IMU-838 5 μM alone): 5.7 CCID50/ml
Virus titer (SARS-CoV-2 [2]; IMU-838 10 μM alone): 4.5 CCID50/ml
reduction of virus titer (SARS-CoV-2 [2]; all other concentrations (5, 1 μM), alone): did not reduce virus titer
T-cell mediated cytokine production [9]: able to block
tolerated repeated daily dosing [10]: up to 50 mg
COVID-19 related adverse events with increased intensity ([11]; IMU-838 treated patients): 7.1%
reduction of C-reactive protein (CRP) vs placebo ([11]; blood): more effective reduction
proportion of patients reaching clinical recovery ([11]; day 7, FAS, 2×22.5 mg + standard-of-care): 18.5%
proportion of patients reaching clinical improvement (as assessed by the investigators) ([11]; day 14, FAS): 42.7%
anti-viral effect by viral titers ([11]; day 14 and day 28): anti-viral effect of IMU-838 on SARS-CoV-2 was observed
proportion of patients reaching clinical improvement (as assessed by the investigators) ([11]; day 28, FAS): 90.9%
proportion of patients reaching clinical recovery ([11]; day 28, FAS): 71.3%
patients reaching WHO score improvement by two points ([11]; elderly patients (65 years or older), day 14, mFAS): 36.4%
acceleration of 75% probability to reach clinical improvement (centrally calculated) vs placebo ([11]; human, in vivo): 2.9 days
acceleration of 75% probability to reach clinical improvement (investigator assessment) vs placebo ([11]; human, in vivo): 3.8 days and 4.8 days
reduction of D-dimer vs placebo ([11]; human, in vivo): more effective reduction
shortening of third patient quartile for duration of hospitalization vs placebo ([11]; human, in vivo): 3.4 days
time to clinical improvement vs placebo ([11]; mFAS): shorter
clinical improvement (centrally calculated) when used early ([11]; within the first 8 days after onset of symptoms, mFAS): observed to be better
plasma levels achieved in the blood of treated patients [12]: 10 to 30 µM
IC50 ([13]; RT (reverse transcriptase)): 2.2 µM
EC50 ([13]; human PBMCs, reverse transcriptase activity and p24, read-out: median effective dose (ED50) HIV): ~2 µM
IC50 ([13]; p24): 2 µM
EC50 ([14]; Huh7 cells, Luc activity readout, read-out: median ED50 HCV replicon): 4.6 µM
IC50 ([14]; Replicon, luciferase): 4.6 µM
IC50 (Lassa fever Arena virus): 2.8 µM
CC50 (in vitro [15]): 88 µM
CC50 (in vitro [16]): > 100 µM
CC50 (in vitro [17]): > 60 µM
CC90 (in vitro [17]): > 60 µM
IC50 [18]: > 30 µM
IC50 [19]: > 50 µM
CC90 at 3 days [20]: > 100 µM
drug concentrations with no cytotoxicity observed (Vero 76): up to 100 μM
hematological effects of COVID19 [21]: did not intensify
rate of infections and infestations and rate of liver events vs placebo [21]: did not increase
rate of serious adverse events and adverse events leading to treatment discontinuation vs placebo [21]: not increased

COc1cccc(-c2ccc(NC(=O)C3=C(C(=O)O)CCC3)c(F)c2)c1 [Vidofludimus, 2-((3-fluoro-3′-methoxy-[1,1′-biphenyl]-4-yl)carbamoyl)cyclopent-1-enecarboxylic acid]
IC50 (Human T-cells): 4.1 µM
off-target activity on EGFR (EGFR): does not hit
off-target activity on Aurora-A kinases (Auroroa-A kinases): does not hit
effects on bone marrow (bone marrow): lack detrimental effects on bone marrow
blood plasma half-life [22]: 30 h
